Data on 23 molecules can be found in patent US10874683B2, “N4-hydroxycytidine and derivatives and anti-viral uses related thereto” (Emory University, priority 2016, dated 2020).

As usually defined, the EC50 is the midpoint of the concentration-response curve.

The nature of series [1]: in vitro. To be noted: African green monkey.
The subject of series [2] is SARS Coronavirus Orbani. Briefly: microbe, parasite or virus in culture. The series is classed as cell-based. Particulars: Severe acute respiratory syndrome coronavirus, Vero 76.
Series [3] has as its system Norovirus GT1. Briefly: Norovirus GT1 antiviral screening in HG23 cells. It counts as cell-based.
A short description of series [4]: Cytotoxicity in HG23 cells (Norovirus screen). The series is classed as cell-based. Particulars: human.
The test system of series [5] is U2OS cell line. Briefly: Cell viability, U2OS cell line (Chikungunya screen).
Series [6] concerns Chikungunya virus. Briefly: Chikungunya virus (MOI 0.5) viral inhibition in U2OS cell line. The series is classed as cell-based. To be noted: for inhibition at 10 µM: read-out: Viral Inh. 10 uM; for inhibition at 50 µM: read-out: Viral Inh. 50 uM.
The test system of series [7] is HeLa.
The subject of series [8] is VEEV. Briefly: microbe, parasite or virus in culture. The series is classed as cell-based. Particulars: Venezuelan equine encephalitis virus, HeLa; for inhibition at 10 µM: read-out: Viral Inh. 10 uM; for inhibition at 50 µM: read-out: Viral Inh. 50 uM.
In series [9] the test system is VEEV. Briefly: microbe, parasite or virus in culture. It counts as cell-based. To be noted: Venezuelan equine encephalitis virus, Astrocyte; for inhibition at 10 µM: read-out: Viral Inh. 10 uM; for inhibition at 50 µM: read-out: Viral Inh. 50 uM.
The test system of series [10] is Astrocytes.
The subject of series [11] is VERO. Briefly: Cell viability, VERO (MERV screen). It counts as cell-based.
Series [12] concerns MERV. Put plainly: MERV (MOI 0.4) viral inhibition in VERO. To be noted: for inhibition at 10 µM: read-out: Viral Inh. 10 uM; for inhibition at 50 µM: read-out: Viral Inh. 50 uM. The series is classed as cell-based.

In brackets after ≈: the same amount, converted by molar mass. Like-named read-outs stand apart in the source and are kept apart here.

With `CCCCCCCCC(=O)ONc1ccn([C@@H]2O[C@H](CO)[C@H](O)C2O)c(=O)n1` (stereo partly drawn), the CC50 in series [1] is 36 µg/mL (≈ 90.1 µM). In series [2], this molecule came in with an EC50 of 0.19 µg/mL (≈ 0.476 µM).

Regarding `CONc1ccn([C@@H]2O[C@H](CO)[C@H](O)C2O)c(=O)n1` (stereo partly drawn), the CC50 in series [1] was over 100 µg/mL. In series [2], the EC50 was over 100 µg/mL.

As for `CC1(O)[C@@H](O)[C@@H](CO)O[C@H]1n1ccc(NO)nc1=O` (stereo partly drawn), the CC50 in [1] and in [4] was over 100 µg/mL throughout. Besides, the EC50 in [3] and in [2] was over 100 µg/mL throughout.

For `O=c1nc(NO)ccn1[C@@H]1O[C@H](CO)[C@H](O)C1O` (stereo partly drawn) [drawing 76], the CC50 in series [1] is 36 µg/mL (≈ 139 µM); in series [4], over 100 µg/mL. Besides, the EC50 in series [3] is over 100 µg/mL; in [2], under 0.1 µg/mL.

`CCCCCCCOC(=O)ONc1ccn([C@@H]2O[C@H](CO)[C@H](O)C2O)c(=O)n1` (stereo partly drawn) [drawing 78] gave a CC50 in series [1] of over 100 µg/mL. For the same molecule, the EC50 in [2] stood at 0.28 µg/mL (≈ 0.698 µM).

`O=c1nc(NO)ccn1[C@@H]1O[C@H](CO)[C@H](O)C1O` (stereo partly drawn) [drawing 81]: in series [5], the “Cell Viability 10 uM” value is reported as 97% ± 5% (n = 4) and the “Cell Viability 50 uM” value is 79% ± 10% (n = 4). Besides, in series [6], the inhibition at 10 µM was 80% and the inhibition at 50 µM worked out at 100%.

Take `CCCCCCCOC(=O)ONc1ccn([C@@H]2O[C@H](CO)[C@H](O)C2O)c(=O)n1` (stereo partly drawn) [drawing 82]: in series [5], the “Cell Viability 10 uM” value is listed as 93% ± 4% (n = 4) and the “Cell Viability 50 uM” value is 78% ± 8% (n = 4). In series [6], the inhibition at 10 µM came out at 72% and the inhibition at 50 µM turned out to be 98%.

With `CC(C)OC(=O)[C@H](C)NP(=O)(OC[C@H]1O[C@@H](n2ccc(NO)nc2=O)C(O)[C@H]1O)Oc1ccccc1` (stereo partly drawn) [drawing 83], in series [5], the “Cell Viability 10 uM” value is reported as 99% ± 6% (n = 4) and the “Cell Viability 50 uM” value was 99% ± 8% (n = 4). Further, in series [6], the inhibition at 10 µM is 3% and the inhibition at 50 µM came to 36%.

For `O=c1nc(NO)c(F)cn1[C@@H]1O[C@H](CO)[C@H](O)C1O` (stereo partly drawn) [drawing 84], in series [5], the “Cell Viability 10 uM” value is 81% ± 4% (n = 4) and the “Cell Viability 50 uM” value is listed as 53% ± 2% (n = 4). In series [6], the inhibition at 10 µM turned out to be 8% and the inhibition at 50 µM was found to be 51%.

Regarding `CCCCCCCNC(=O)ONc1ccn([C@@H]2O[C@H](CO)[C@H](O)C2O)c(=O)n1` (stereo partly drawn) [drawing 85], in series [5], the “Cell Viability 10 uM” value was 105% ± 2% (n = 4) and the “Cell Viability 50 uM” value is 96% ± 11% (n = 4). For the same molecule, in [6], the inhibition at 10 µM stood at 14% and the inhibition at 50 µM stood at 70%.

On to `O=c1nc(NO)ccn1[C@@H]1O[C@H](CO)[C@H](O)C1O` (stereo partly drawn) [drawing 86], for which, in series [7], the “Cell Viability 10 uM” value is reported as 116% ± 24% (n = 4) and the “Cell Viability 50 uM” value is recorded as 61% ± 8% (n = 4). In [8], the EC50 came to 1.24 µM, the inhibition at 10 µM stood at 100% and the inhibition at 50 µM was determined as 100%.

In the case of `CCCCCCCOC(=O)ONc1ccn([C@@H]2O[C@H](CO)[C@H](O)C2O)c(=O)n1` (stereo partly drawn) [drawing 87], in series [7], the “Cell Viability 10 uM” value is reported as 116% ± 20% (n = 4) and the “Cell Viability 50 uM” value is on record as 85% ± 8% (n = 4). In addition, in series [8], the response was half-maximal at 0.57 µM (EC50), the inhibition at 10 µM was 100% and the inhibition at 50 µM amounted to 100%.

Consider `CC(C)OC(=O)[C@H](C)NP(=O)(OC[C@H]1O[C@@H](n2ccc(NO)nc2=O)C(O)[C@H]1O)Oc1ccccc1` (stereo partly drawn) [drawing 88], for which, in series [7], the “Cell Viability 10 uM” value is reported as 137% ± 16% (n = 4) and the “Cell Viability 50 uM” value is on record as 134% ± 16% (n = 4). For the same molecule, in [8], it took 16.2 µM to reach a half-maximal effect (EC50), the inhibition at 10 µM was 73% and the inhibition at 50 µM turned out to be 100%.

With `O=c1nc(NO)c(F)cn1[C@@H]1O[C@H](CO)[C@H](O)C1O` (stereo partly drawn) [drawing 89], in [7], the “Cell Viability 10 uM” value is listed as 55% ± 4% (n = 4) and the “Cell Viability 50 uM” value was 36% ± 2% (n = 4). For the same molecule, in series [8], the inhibition at 10 µM was 61% and the inhibition at 50 µM amounted to 98%.

In the case of `CCCCCCCNC(=O)ONc1ccn([C@@H]2O[C@H](CO)[C@H](O)C2O)c(=O)n1` (stereo partly drawn) [drawing 90], in series [7], the “Cell Viability 10 uM” value was 151% ± 16% (n = 4) and the “Cell Viability 50 uM” value is recorded as 126% ± 7% (n = 4). Besides, in series [8], it took 6 µM to reach a half-maximal effect (EC50), the inhibition at 10 µM stood at 93% and the inhibition at 50 µM turned out to be 100%.

In the case of `O=c1nc(NO)ccn1[C@@H]1O[C@H](CO)[C@H](O)C1O` (stereo partly drawn) [drawing 91], in [9], the inhibition at 10 µM worked out at 99% and the inhibition at 50 µM came out at 100%. Besides, in [10], the “Cell Viability 10 uM” value is 98% ± 12% (n = 3) and the “Cell Viability 50 uM” value is given as 86% ± 5% (n = 3).

As to `CCCCCCCOC(=O)ONc1ccn([C@@H]2O[C@H](CO)[C@H](O)C2O)c(=O)n1` (stereo partly drawn) [drawing 92], in series [9], the inhibition at 10 µM worked out at 94% and the inhibition at 50 µM came out at 100%. In series [10], the “Cell Viability 10 uM” value is on record as 99% ± 9% (n = 3) and the “Cell Viability 50 uM” value was 94% ± 10% (n = 3).

In the case of `CC(C)OC(=O)[C@H](C)NP(=O)(OC[C@H]1O[C@@H](n2ccc(NO)nc2=O)C(O)[C@H]1O)Oc1ccccc1` (stereo partly drawn) [drawing 93], in series [9], the inhibition at 10 µM worked out at 49% and the inhibition at 50 µM amounted to 96%. Further, in [10], the “Cell Viability 10 uM” value is 102% ± 16% (n = 3) and the “Cell Viability 50 uM” value was 100% ± 17% (n = 3).

Take `CCCCCCCNC(=O)ONc1ccn([C@@H]2O[C@H](CO)[C@H](O)C2O)c(=O)n1` (stereo partly drawn) [drawing 95]: in series [9], the inhibition at 10 µM turned out to be 51% and the inhibition at 50 µM is 37%. Besides, in series [10], the “Cell Viability 10 uM” value is reported as 98% ± 12% (n = 3) and the “Cell Viability 50 uM” value is 85% ± 19% (n = 3).

As for `O=c1nc(NO)ccn1[C@@H]1O[C@H](CO)[C@H](O)C1O` (stereo partly drawn) [drawing 96], in series [11], the “Cell Viability 10 uM” value is recorded as 75% ± 6% (n = 4) and the “Cell Viability 50 uM” value is given as 47% ± 3% (n = 4). Further, in [12], the inhibition at 10 µM was 99% and the inhibition at 50 µM was determined as 100%.

Turning to `CCCCCCCOC(=O)ONc1ccn([C@@H]2O[C@H](CO)[C@H](O)C2O)c(=O)n1` (stereo partly drawn) [drawing 97], in series [11], the “Cell Viability 10 uM” value is 84% ± 8% (n = 4) and the “Cell Viability 50 uM” value was 58% ± 2% (n = 4). Further, in series [12], the inhibition at 10 µM was found to be 99% and the inhibition at 50 µM is 99%.

For the molecule `CC(C)OC(=O)[C@H](C)NP(=O)(OC[C@H]1O[C@@H](n2ccc(NO)nc2=O)C(O)[C@H]1O)Oc1ccccc1` (stereo partly drawn) [drawing 98], in series [11], the “Cell Viability 10 uM” value is recorded as 103% ± 14% (n = 4) and the “Cell Viability 50 uM” value is 102% ± 36% (n = 4). In addition, in series [12], the inhibition at 10 µM was determined as 29% and the inhibition at 50 µM came out at 85%.

As for `CCCCCCCNC(=O)ONc1ccn([C@@H]2O[C@H](CO)[C@H](O)C2O)c(=O)n1` (stereo partly drawn) [drawing 100], in series [11], the “Cell Viability 10 uM” value is 118% ± 15% (n = 4) and the “Cell Viability 50 uM” value was 91% ± 39% (n = 4). In addition, in [12], the inhibition at 10 µM came to 86% and the inhibition at 50 µM was determined as 98%.
